# How the values were obtained:
# [1] = tested on: rats fed high-cholesterol diet; test: Serum and liver lipid levels in high-cholesterol diet animal model; type: in vivo, rat; details: 200 mg/kg orally, 4 weeks
# Description: 8-week-old female rats weighing 250-300 g were kept in polycarbonate cages, 8 heads per cage, maintained at 22±2° C. and 55±15% relative humidity with 12/12-hr light/dark cycles. Normal diet or high-cholesterol diet was provided and water was given freely. Fenofibric acid (200 mg/kg) used for treatment of hyperlipidemia was suspended in 1% methyl cellulose (MC) and orally administered as a positive control. The seoritae extract (200 mg/kg) was orally administered once a day for 4 weeks. […] After the centrifugation, total cholesterol, LDL-cholesterol, HDL-cholesterol and triglyceride levels in the obtained serum were evaluated. The analysis was performed using an automated hematology analyzer and the Roche diagnostic kit. The result is shown in Table 17 (serum lipids) and Table 18 (liver lipids).
# [2] = in vivo
# Description: Bleeding time was compared for the cases where 20% ethanol seoritae extract, aspirin or clopidogrel was treated.
bleeding time (FIG. 18) [2],Structure (SMILES),Total cholesterol ([1]; liver) [µg/mg],Triglyceride ([1]; liver) [µg/mg],HDL-cholesterol ([1]; serum) [mg/dL],LDL-cholesterol ([1]; serum) [mg/dL],Total cholesterol ([1]; serum) [mg/dL]
–,"CC(C)(Oc1ccc(C(=O)c2ccc(Cl)cc2)cc1)C(=O)O [Positive control, Fenofibric acid]",15.43 ± 0.52,185.39 ± 23.84,87.89 ± 6.84,75.34 ± 2.80,112.42 ± 13.33
significant increase of bleeding time,CC(=O)Oc1ccccc1C(=O)O [aspirin],–,–,–,–,–
significant increase of bleeding time,COC(=O)[C@H](c1ccccc1Cl)N1CCc2sccc2C1 [clopidogrel],–,–,–,–,–

# Reference: patent US11197903B2, “Composition containing a bean extract for improving blood circulation and vascular health and method for improving blood circulation and vascular health” (AMOREPACIFIC CORPORATION, priority 2009, dated 2021)
